Measurements: the supplement of paper PMC11451515

System: SEM cells
Assay: cell viability relative to DMSO control; higher = less cytotoxic
Details: 48 h
Outline: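 Viability, reported as a per-plate percentage of DMSO wells with cell-free wells as background, came from CellTiter-Glo One luminescence. Reading took place after 48 h at 37°C. Before that, NOMO1 or SEM (500 cells/well) or P12-Ichikawa (1000 cells/well) leukemia cells, adapted for at least four passages in each medium, were seeded in 1536-well plates (5 μl) and pin-dosed with library compounds in DMSO, 47 μM to 0.79 nM over 11 threefold points.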

[1] = RPMI 5 mM glucose + 10% FBS, 0.000781 µM
[2] = RPMI 5 mM glucose + 10% FBS, 0.00234 µM
[3] = RPMI 5 mM glucose + 10% FBS, 0.00702 µM
[4] = RPMI 5 mM glucose + 10% FBS, 0.0211 µM
[5] = RPMI 5 mM glucose + 10% FBS, 0.0632 µM
[6] = RPMI 5 mM glucose + 10% FBS, 0.19 µM
[7] = RPMI 5 mM glucose + 10% FBS, 0.569 µM
[8] = RPMI 5 mM glucose + 10% FBS, 1.71 µM
[9] = RPMI 5 mM glucose + 10% FBS, 5.12 µM
[10] = RPMI 5 mM glucose + 10% FBS, 15.4 µM
[11] = RPMI 5 mM glucose + 10% FBS, 46.1 µM
[12] = RPMI 5 mM glucose + 10% dialyzed FBS, 0.000781 µM
[13] = RPMI 5 mM glucose + 10% dialyzed FBS, 0.00234 µM
[14] = RPMI 5 mM glucose + 10% dialyzed FBS, 0.00702 µM
[15] = RPMI 5 mM glucose + 10% dialyzed FBS, 0.0211 µM
[16] = RPMI 5 mM glucose + 10% dialyzed FBS, 0.0632 µM
[17] = RPMI 5 mM glucose + 10% dialyzed FBS, 0.19 µM
[18] = RPMI 5 mM glucose + 10% dialyzed FBS, 0.569 µM
[19] = RPMI 5 mM glucose + 10% dialyzed FBS, 1.71 µM
[20] = RPMI 5 mM glucose + 10% dialyzed FBS, 5.12 µM
[21] = RPMI 5 mM glucose + 10% dialyzed FBS, 15.4 µM
[22] = RPMI 5 mM glucose + 10% dialyzed FBS, 46.1 µM
[23] = HPLM + 10% dialyzed FBS, 0.000781 µM
[24] = HPLM + 10% dialyzed FBS, 0.00234 µM
[25] = HPLM + 10% dialyzed FBS, 0.00702 µM
[26] = HPLM + 10% dialyzed FBS, 0.0211 µM
[27] = HPLM + 10% dialyzed FBS, 0.0632 µM
[28] = HPLM + 10% dialyzed FBS, 0.19 µM
[29] = HPLM + 10% dialyzed FBS, 0.569 µM
[30] = HPLM + 10% dialyzed FBS, 1.71 µM
[31] = HPLM + 10% dialyzed FBS, 5.12 µM
[32] = HPLM + 10% dialyzed FBS, 15.4 µM
[33] = HPLM + 10% dialyzed FBS, 46.1 µM

Structure (SMILES) | cell viability [1] [%] | cell viability [2] [%] | cell viability [3] [%] | cell viability [4] [%] | cell viability [5] [%] | cell viability [6] [%] | cell viability [7] [%] | cell viability [8] [%] | cell viability [9] [%] | cell viability [10] [%] | cell viability [11] [%] | cell viability [12] [%] | cell viability [13] [%] | cell viability [14] [%] | cell viability [15] [%] | cell viability [16] [%] | cell viability [17] [%] | cell viability [18] [%] | cell viability [19] [%] | cell viability [20] [%] | cell viability [21] [%] | cell viability [22] [%] | cell viability [23] [%] | cell viability [24] [%] | cell viability [25] [%] | cell viability [26] [%] | cell viability [27] [%] | cell viability [28] [%] | cell viability [29] [%] | cell viability [30] [%] | cell viability [31] [%] | cell viability [32] [%] | cell viability [33] [%]
COc1ccc2c(c1)CC[C@@H](CN(C)CC(=O)O)[C@H]2c1ccccc1 | 120 | 122 | 126 | 109 | 124 | 104 | 110 | 79.8 | 31 | 20.9 | 16 | 94.9 | 100 | 101 | 110 | 109 | 115 | 115 | 91.3 | 41.5 | 24.8 | 19.9 | – | – | – | – | – | – | – | – | – | – | –
CCOC\1=C(/C(=O)NC2=CC=C(OC3=C(Cl)C(=NC=C3)N)C(=C2)F)C(=O)N(\C=C1)C4=CC=C(F)C=C4 | 122 | 118 | 105 | 95.9 | 98.4 | 91.1 | 75.5 | 53.3 | 39.7 | 27.5 | 6.35 | 92.1 | 83.9 | 96 | 90.1 | 82.4 | 76.4 | 57 | 40 | 33.9 | 22.9 | 6.07 | 95.5 | 97.7 | 98.4 | 94.7 | 91.1 | 76.8 | 63.3 | 50.6 | 32.8 | 28.9 | 15
CC/C(=C(\c1ccccc1)c1ccc(OCCN(C)C)cc1)c1ccccc1 | 98.1 | 99.7 | 95.8 | 93.8 | 66.7 | 95 | 99.2 | 99.9 | 90.5 | 91.6 | 12.5 | 87.4 | 87.2 | 102 | 95.2 | 81.7 | 115 | 99.4 | 96.3 | 95.2 | 93.9 | 13 | 80.9 | 97.6 | 107 | 103 | 74.6 | 102 | 94 | 108 | 96.3 | 86.2 | 16.8
O=C(/C=C/c1cccnc1)NCCCCC1CCN(C(=O)c2ccccc2)CC1 | 103 | 65.1 | 14.8 | 7.35 | 21.9 | 5.86 | 6.67 | 6.71 | 5.95 | 5.65 | 3.92 | 105 | 32 | 13.8 | 7.49 | 7.08 | 6.77 | 6.47 | 6.21 | 6.4 | 7.09 | 4.78 | 76.5 | 86.3 | 22.7 | 9.57 | 7.6 | 6.37 | 6.62 | 6.08 | 6.74 | 6.78 | 5.79
Clc1ccc(C(Cn2ccnc2)OCc2ccsc2Cl)c(Cl)c1 (stereo not given) | 76.4 | 95.1 | 114 | 105 | 132 | 121 | 100 | 122 | 110 | 112 | 65.6 | 69.3 | 110 | 110 | 117 | 128 | 124 | 101 | 109 | 118 | 105 | 55.9 | 67.6 | 98.8 | 107 | 93.1 | 114 | 110 | 90.4 | 111 | 111 | 114 | 35.7
NC(=O)Cc1cccc(C(=O)c2ccccc2)c1N | 95.7 | 38.4 | 90.7 | 33.4 | 101 | 95.2 | 95 | 107 | 95.5 | 88.8 | 85.1 | 44.3 | 78.3 | 101 | 43.1 | 97.4 | 107 | 103 | 112 | 95.4 | 105 | 85.2 | 73 | 99.4 | 96.9 | 39.7 | 113 | 115 | 109 | 99.6 | 96 | 101 | 104
COc1ccc(-c2cc3c(C)nc(N)nc3n([C@H]3CC[C@H](OCCO)CC3)c2=O)cn1 | 105 | 105 | 97.8 | 99.8 | 79.8 | 62.1 | 55.3 | 29.1 | 29.6 | 9.56 | 1.08 | 79.7 | 86.1 | 75.4 | 75.3 | 69.7 | 58.9 | 46.4 | 34.7 | 29.3 | 14.6 | 1.67 | 99.4 | 91.8 | 84.6 | 77.2 | 70.5 | 64.9 | 47 | 32.6 | 24.3 | 6.37 | 1
